# Experiments:
# Format in all cases: cell-based, human
# [1] = test system: LNCaP cells; experiment: MTT cell growth assay; conditions: equimolecular concentrations of LiCl, NaCl, KCl, three days
# Description: For MTT-based cell growth assays, cells seeded in 96-well plates were serum-starved for 48 hours, and were then treated with vehicle or different reagents for different time periods as indicated in the figures. MTT assay were carried out using a pre-assembled kit (Sigma) according to the manufacturer's manual.
# To rule out the eventual intervention of the chloride anion and the osmotic disturbance, the effect of LiCl was compared with sodium chloride (“NaCl”) and potassium chloride (“KCl”) at equimolecular concentrations in both LNCaP and PC-3 cell lines. In addition, the androgen-insensitive C4-2 cell line was included. To easily handle the experiments while multiple comparisons were taken in place, a MTT assay was used to assess cell growth.
# Lastly, two GSK-3β-specific small chemical inhibitors, SB216763 and BIO, were used to verify that LiCl-induced suppression of cell growth is due to GSK-3β inhibition. LNCaP cells were seeded as above and then treated with increasing doses of the inhibitors in a full culture medium. Cell growth was assessed three days later by MTT assay.
# [2] = test system: LNCaP cells; experiment: cell cycle analysis by flow cytometry (PI); conditions: serum-starved 24 hours then full media with LiCl up to 24 hours
# Description: For cell cycle analysis, serum-starved cells were left untreated or treated with different inhibitors for various time periods as indicated in the figures. After trypsinization, the cells were fixed and stained with propidium iodide (“PI”). Cell cycle distribution of PI-labeled cells was analyzed on a fluorescence activated cell sorter (Model EPICS XL-MCL, Beckman-Coulter Co., Fullerton, Calif.) as described previously (Miyake 2001).
# LNCaP cells were first serum-starved for 24 hours, and were then released by returning them to full culture media in the presence or absence of LiCl for up to 24 hours. Cell cycle distribution was analyzed by flow cytometry (“FCM”). […] When serum was added back in the culture (the control), cells re-entered into cell cycle.
# [3] = test system: LNCaP cells; experiment: Affymetrix cDNA microarray for LiCl-induced changes
# Description: Genechip® arrays (Affymetrix Inc, Santa Clara, Calif.) used herein contain almost 45,000 probe sets representing more than 39,000 transcripts derived from approximately 33,000 well substantial human genes. The in vitro-transcription labeling is conducted using the EnzoBio array high yield RNA transcript labeling kit (Affymetrix). Ten micrograms of total RNAs were used for the first strand cDNA synthesis using the SuperscriptChoice system (Invitrogen).
# Genechips were hybridized for 16 hours at 45° C. and 60 rpm in Genechip hybridization oven Model 640. After washing the Genechip, the signal intensity was detected using the Agilent Gene Array scanner.
# This example investigated the genes that are altered by GSK-3β inhibition. This approach started with a genome-wide screening of gene expression with cDNA Microarray to identify the altered genes, which was verified by RT-PCR and Western blot at mRNA and protein levels, respectively. After sequestered in serum-free media for 24 hours, LNCaP cells were left untreated or treated with LiCl in a full culture media for 18 hours. The total cellular RNAs were extracted from the cells for cDNA Microarray analysis.
# [4] = test system: LNCaP cells; experiment: Western blot of cell cycle-related proteins
# Description: Western blot was carried out as described previously (Liao 2004, Liao 2003, and Liao 2005). Briefly, cells were pellets and lysed in radio-immunoprecipitation assay (“RIPA”) buffer containing protease inhibitors (Half™ Protease Inhibitor Cocktail Kit, PIERCE, Rockford, Ill.). Proteins were separated on SDS-PAGE gels and transferred to Immuno-Blot™ PVDF membrane (BIO-RAD, Hercules, Calif.). Membranes were blocked in a tris-buffered solution plus Tween 20 (“TBST”) solution with 5% nonfat dry milk and incubated with primary antibodies overnight at 4° C. Immunoreactive signals were detected by horseradish peroxidase-conjugated secondary antibodies (Santa Cruz Biotech., Santa Cruz, Calif.) followed by SuperSingnal® WestFeml® Maximum Sensitivity Substrate (PIERCE).
# To verify those alterations at a protein level, two series experiments were conducted using Western blot technique. The first involved a time-course experiment. After serum starvation, LNCaP cells were left untreated or treated as before with LiCl for up to 24 hours. Cells were harvested at 18-24 hours.
# Next, a dose-response experiment was performed. Following serum starvation for 24 hours, LNCaP cells were treated with BIO at different doses for another 24 hours. Control cells received the vehicle as treatment.
# [5] = LiCl in full culture media 18 hours, down-regulation
# [6] = LiCl in full culture media 18 hours, up-regulation
structure (smiles),measurement,setting,value
"[Cl-].[Li+] [LiCl, Lithium chloride]",cell growth inhibition (MTT),[1],dramatic inhibition
same,portion of S-phase cells,[2],dramatically increased
same,"fold change, Cyclin A2 (203418_at)",[3]; [5],−4.19
same,"fold change, Cyclin E2 (205034_at)",[3]; [5],−2.99
same,"fold change, Cyclin E2 (211814_s_at)",[3]; [5],−2.18
same,"fold change, cdc6 (203967_at)",[3]; [5],−3.47
same,"fold change, cdc6 (203968_s_at)",[3]; [5],−3
same,"fold change, cdc25c (205167_s_at)",[3]; [5],−2.74
same,"fold change, cdc25c (217010_s_at)",[3]; [5],−5.99
same,"fold change, cyclin B2 (202705_at)",[3]; [5],−1.4
same,"fold change, p27KIP1 (209112_at)",[3]; [5],−1.17
same,"fold change, cyclin D1 (203665_at)",[3]; [6],2.07
same,"fold change, cyclin D1 (208712_at)",[3]; [6],1.84
same,"fold change, cyclin G2 (202770_s_at)",[3]; [6],1.87
same,"fold change, p21CIP1 (202284_s_at)",[3]; [6],5.7
same,"fold change, p57KIP2 (213348_at)",[3]; [6],1.79
same,microarray expression of cyclin D1,[3]; LiCl treatment,slight increase
same,"microarray expression of other cell cycle related proteins (cyclin B, cdc2, p27KIP1, p57KIP2)",[3]; LiCl treatment,No significant changes
same,"treatment signal, p57KIP2 (213348_at)","[3]; LiCl-treated, control signal 137.6",246.4
same,"treatment signal, cdc25c (217010_s_at)","[3]; LiCl-treated, control signal 207.8",34.7
same,"treatment signal, cyclin D1 (203665_at)","[3]; LiCl-treated, control signal 294.7",609.3
same,"treatment signal, cyclin G2 (202770_s_at)","[3]; LiCl-treated, control signal 325.3",606.9
same,"treatment signal, p21CIP1 (202284_s_at)","[3]; LiCl-treated, control signal 430.9",2457.2
same,"treatment signal, cdc25c (205167_s_at)","[3]; LiCl-treated, control signal 442.3",161.2
same,"treatment signal, Cyclin E2 (211814_s_at)","[3]; LiCl-treated, control signal 852.7",391.2
same,"treatment signal, cyclin D1 (208712_at)","[3]; LiCl-treated, control signal 853.9",1568.2
same,"treatment signal, cdc6 (203968_s_at)","[3]; LiCl-treated, control signal 1132.5",377.9
same,"treatment signal, cdc6 (203967_at)","[3]; LiCl-treated, control signal 1136",327
same,"treatment signal, Cyclin E2 (205034_at)","[3]; LiCl-treated, control signal 1268.1",423.8
same,"treatment signal, p27KIP1 (209112_at)","[3]; LiCl-treated, control signal 1365.8",1171.7
same,"treatment signal, Cyclin A2 (203418_at)","[3]; LiCl-treated, control signal 1529.8",364.7
same,"treatment signal, cyclin B2 (202705_at)","[3]; LiCl-treated, control signal 2379.1",1693.9
same,"protein levels of cyclin B, PCNA, pRb, cdc2, cdc42 and GSK-3β (Western blot)",[4]; LiCl time-course,no significant change
same,"serum-induced increase of cyclins A and E, cdc6 and cdc25C protein (Western blot)",[4]; LiCl time-course up to 24 hours,dramatically suppressed
same,protein levels of cyclin D1 (Western blot),"[4]; LiCl time-course, vs control",slightly higher
same,p21CIP1 protein expression (Western blot),"[4]; LiCl time-course, vs untreated control",increased significantly
